Measured values: article PMC4729137, “Functional analysis of androgen receptor mutations that confer anti-androgen resistance identified in circulating cell-free DNA from prostate cancer patients” (Genome Biology, 2016)
Positions count from the first letter of the chain named.

How the values were obtained:
D880E-AR = biological target: T1, D880E-AR (Homo sapiens, UniProt P10275, D880E); test: cell-based
T1 sequence (P10275 1-920 D880E): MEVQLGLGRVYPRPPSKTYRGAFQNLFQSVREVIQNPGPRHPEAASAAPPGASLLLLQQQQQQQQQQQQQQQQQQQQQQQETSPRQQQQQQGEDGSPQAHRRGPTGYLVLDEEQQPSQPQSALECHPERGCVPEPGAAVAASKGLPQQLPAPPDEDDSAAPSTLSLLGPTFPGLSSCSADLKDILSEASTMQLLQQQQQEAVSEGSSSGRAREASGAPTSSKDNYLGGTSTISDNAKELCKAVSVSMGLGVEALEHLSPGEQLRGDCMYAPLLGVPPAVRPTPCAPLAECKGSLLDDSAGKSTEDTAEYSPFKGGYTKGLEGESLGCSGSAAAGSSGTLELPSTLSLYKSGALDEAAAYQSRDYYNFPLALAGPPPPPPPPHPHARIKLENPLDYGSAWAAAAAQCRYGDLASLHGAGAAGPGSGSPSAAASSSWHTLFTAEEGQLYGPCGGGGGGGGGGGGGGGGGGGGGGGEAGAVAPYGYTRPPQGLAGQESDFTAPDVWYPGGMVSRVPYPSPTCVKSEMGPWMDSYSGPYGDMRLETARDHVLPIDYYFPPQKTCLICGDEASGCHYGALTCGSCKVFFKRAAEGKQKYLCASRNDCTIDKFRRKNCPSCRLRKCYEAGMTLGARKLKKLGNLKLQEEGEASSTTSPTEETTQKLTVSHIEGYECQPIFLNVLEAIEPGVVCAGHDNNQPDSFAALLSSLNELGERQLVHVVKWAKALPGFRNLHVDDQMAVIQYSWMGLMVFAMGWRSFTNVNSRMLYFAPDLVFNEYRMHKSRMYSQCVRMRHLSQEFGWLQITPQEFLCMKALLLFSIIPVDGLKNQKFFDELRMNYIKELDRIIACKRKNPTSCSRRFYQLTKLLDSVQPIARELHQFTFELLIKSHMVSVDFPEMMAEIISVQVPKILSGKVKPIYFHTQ

T878A-AR = biological target: T2, T878A-AR (Homo sapiens, UniProt P10275, T878A); type: cell-based; design: Full-length human AR (WT-AR) was encoded on a pcDNA3.1 expression plasmid; expressed in transfected cells; host or cells: PC3 cells; conditions: AR mutant T878A; transfected PC3 cells; 0.1 nM R1881; drug 0 to 50 μM
T2 sequence (P10275 1-920 T878A): T1 sequence (P10275 1-920 D880E) with T878A, E880D
From the text: Full-length human AR (WT-AR) was encoded on a pcDNA3.1 expression plasmid (Life technologies). The LBD point mutations (single and multiple) were generated using the QuikChange II Site-Directed Mutagenesis Kit (Agilent Technologies) as per manufacturer’s instructions using WT-AR as the template. The mutagenic oligonucleotide primers were designed individually with the desired mutation in the middle of the primer with approximately 10 to 15 bases of correct sequence on both sides.
PC3 cells were seeded and transfected as described above. […] A non-stimulated/no R1881 control was used. After 24 h, cells were lysed and AR-dependent luciferase activity was quantified. Each concentration was assayed in quadruplicate n = 4, with a biological replicate of n = 3. Results were averaged and normalized by expressing them as a percentage of WT AR activity.

| SMILES | EC50 (D880E-AR) | Agonist response to treatment (T878A-AR) |
| --- | --- | --- |
| C[C@]12CCC(=O)C=C1CC[C@@H]1[C@@H]2[C@@H](O)C[C@@]2(C)[C@H]1CC[C@]2(O)C(=O)CO [hydrocortisone] | > 500 nM |  |
| CC(C)(O)C(=O)Nc1ccc([N+](=O)[O-])c(C(F)(F)F)c1 [Hydroxyflutamide, hydroxyflutamide] |  | Partial |
